Experimental data reported in article PMC3155243 (Molecular cancer therapeutics, 2011).
Values belong to the molecule of their own block, whether it stands above or below them.

Columns and labels:
[1] = human, in vivo
advanced solid tumours = details: bortezomib days 1, 4, 8 and 11 with paclitaxel days 1 and 8; cited from earlier work
proteasome = details: bortezomib dose 0.7 mg/m^2; cited from earlier work
[2] = with bortezomib and paclitaxel; cited from earlier work
[3] = tested on: BMK cancer cell lines and allograft tumors with RAS/RAF/MAPK pathway activation; details: baby mouse kidney (BMK) epithelial cell model; cited from earlier work
clinical = details: human, plasma, intravenous
[4] = Paclitaxel plasma pharmacokinetics
[5] = Dose Level 1: paclitaxel 40 mg/m^2 + bortezomib 0.7 mg/m^2
[6] = Dose Level 2: paclitaxel 45 mg/m^2 + bortezomib 0.75 mg/m^2
[7] = Dose Level 4: paclitaxel 60 mg/m^2 + bortezomib 1.0 mg/m^2

SMILES: CC(C)C[C@H](NC(=O)[C@H](Cc1ccccc1)NC(=O)c1cnccn1)B(O)O [bortezomib]
- MTD of bortezomib [1]: 1.0 mg/m^2
- recommended phase II dose of bortezomib (advanced solid tumours): 1.3 mg/m^2
- effect on proteasome function (proteasome): effectively inhibit proteasome function

SMILES: N.N.O=C([O-])C1(C(=O)[O-])CCC1.[Pt+2] [carboplatin]
- recommended phase II dose of carboplatin [2]: 6 AUC

- Tmax (clinical): 1 h
- clearance (clinical): 283 to 800 mL/min
- AUC (last) [4, 5]: 1.14 ± 0.45 µg·h/mL
- T1/2 [4, 5]: 1.75 ± 1.45 h
- AUC (last) [4, 6]: 1.43 ± 0.90 µg·h/mL
- T1/2 [4, 6]: 0.69 ± 0.20 h
- AUC (last) ([4]; Dose Level 3: paclitaxel 51 mg/m^2 + bortezomib 0.86 mg/m^2): 1.70 ± 0.37 µg·h/mL
- AUC (last) [4, 7]: 2.29 ± 0.74 µg·h/mL
- T1/2 [4, 7]: 1.83 ± 0.86 h
- clearance [4, 7]: 27.2 L/h
SMILES: CC(=O)O[C@H]1C(=O)[C@@]2(C)[C@H]([C@H](OC(=O)c3ccccc3)[C@]3(O)C[C@H](OC(=O)[C@H](O)[C@@H](NC(=O)c4ccccc4)c4ccccc4)C(C)=C1C3(C)C)[C@]1(OC(C)=O)CO[C@@H]1C[C@@H]2O [paclitaxel]
- effect on BIM [3]: induced selective BIM accumulation
